From US7087642B2 (priority 1999, dated 2006)
Like-named read-outs stand apart in the source and are kept apart here.

Assays:
IMPDH human type II = IMPDH human type II (Homo sapiens, UniProt P12268); assay: biochemical
human PBMC T cells = assay: cells; assay type: cell-based; conditions: read-out: T-cells (IC50)
human PBMC B cells = assay: cells; assay type: cell-based; conditions: read-out: B-cells (IC50)

SMILES | Ki (IMPDH human type II; read-out: Ki) | IC50 (human PBMC T cells; Homo sapiens, 72 h) | IC50 (human PBMC B cells; Homo sapiens, 72 h) | IC50 (human PBMC T cells) | IC50 (human PBMC B cells) | Ki (IMPDH human type II)
COc1cc(NC(=O)Nc2cccc(CNC(=O)OC[C@@H](CC#N)N(C)C)c2)ccc1-c1cnco1 [Compound 15] | < 10 nM | 100 to 1000 nM | 100 to 1000 nM | – | – | –
CCC(CC#N)OC(=O)NCc1cccc(NC(=O)Nc2ccc(-c3cnco3)c(OC)c2)c1 (stereo not drawn) [Compound 27] | < 10 nM | < 100 nM | < 100 nM | – | – | –
CC[C@H](CCC#N)OC(=O)N[C@@H](C)c1cccc(NC(=O)Nc2ccc(C#N)c(OC)c2)c1 [Compound 162] | 10 to 50 nM | 100 to 1000 nM | 100 to 1000 nM | – | – | –
COc1cc(NC(=O)Nc2cccc(CNC(=O)OCCOCCC#N)c2)ccc1-c1cnco1 [Compound 2] | < 10 nM | 100 to 1000 nM | 100 to 1000 nM | – | – | –
CCN(CC)C[C@@H](CC#N)OC(=O)NCc1cccc(NC(=O)Nc2ccc(-c3cnco3)c(OC)c2)c1 [Compound 16] | < 10 nM | – | – | > 1000 nM | > 1000 nM | –
COc1cc(NC(=O)Nc2cccc(CNC(=O)OCCCOP(=O)(O)O)c2)ccc1-c1cnco1 [Compound 97] | 10 to 50 nM | < 100 nM | < 100 nM | – | – | –
CCCC(COC)OC(=O)NCc1cccc(NC(=O)Nc2ccc(-c3cnco3)c(OC)c2)c1 (stereo not drawn) [Compound 38] | < 10 nM | 100 to 1000 nM | 100 to 1000 nM | – | – | –
COc1cc(NC(=O)Nc2cccc(CNC(=O)O[C@@H](CO)CSC)c2)ccc1-c1cnco1 [Compound 88] | < 10 nM | 100 to 1000 nM | 100 to 1000 nM | – | – | –
CCOc1cc(NC(=O)Nc2cccc([C@H](C)NC(=O)O[C@H](CC)CC#N)c2)ccc1C#N [Compound 182] | > 50 nM | > 1000 nM | 100 to 1000 nM | – | – | –
CCCCC(CC#N)OC(=O)NCc1cccc(NC(=O)Nc2ccc(-c3cnco3)c(OC)c2)c1 (stereo not drawn) [Compound 33] | < 10 nM | 100 to 1000 nM | 100 to 1000 nM | – | – | –
CCC(CC#N)OC(=O)N[C@@H](C)c1cccc(NC(=O)Nc2ccc(-c3cnco3)c(OC)c2)c1 (stereo partly drawn) [Compound 181] | < 10 nM | < 100 nM | < 100 nM | – | – | –
CC[C@H](CC#N)OC(=O)N[C@@H](C)c1cccc(NC(=O)Nc2ccc(C#N)c(OC)c2)c1 [Compound 169] | – | < 100 nM | < 100 nM | – | – | < 10 nM
COc1cc(NC(=O)Nc2cccc(CNC(=O)OC(CCN(C)C)c3ccccc3)c2)ccc1-c1cnco1 (stereo not drawn) [Compound 35] | < 10 nM | 100 to 1000 nM | 100 to 1000 nM | – | – | –
COc1cc(NC(=O)Nc2cccc(CNC(=O)Oc3cccc(/C=C/C(=O)OC(C)(C)C)c3)c2)ccc1-c1cnco1 [Compound 74] | – | > 1000 nM | > 1000 nM | – | – | < 10 nM
COc1cc(NC(=O)Nc2cccc(CNC(=O)O[C@H](CN(CC(C)C)C(C)C)c3ccccc3)c2)ccc1-c1cnco1 [Compound 109] | > 50 nM | 100 to 1000 nM | 100 to 1000 nM | – | – | –
COc1cc(NC(=O)Nc2cccc(CNC(=O)OC(CC#N)C(C)C)c2)ccc1-c1cnco1 (stereo not drawn) [Compound 40] | < 10 nM | > 1000 nM | 100 to 1000 nM | – | – | –
CCN(CC)C[C@@H](OC(=O)NCc1cccc(NC(=O)Nc2ccc(-c3cnco3)c(OC)c2)c1)c1ccccc1 [Compound 67] | < 10 nM | 100 to 1000 nM | 100 to 1000 nM | – | – | –
CC[C@@H](CCC#N)OC(=O)NCc1cccc(NC(=O)Nc2ccc(-c3cnco3)c(OC)c2)c1 [Compound 101] | < 10 nM | < 100 nM | < 100 nM | – | – | –
COc1cc(NC(=O)Nc2cccc(CNC(=O)OC(CCC#N)C(F)(F)F)c2)ccc1-c1cnco1 (stereo not drawn) [Compound 90] | < 10 nM | 100 to 1000 nM | 100 to 1000 nM | – | – | –
CCN(CCC(OC(=O)NCc1cccc(NC(=O)Nc2ccc(-c3cnco3)c(OC)c2)c1)c1ccccc1)CC(C)C (stereo not drawn) [Compound 125] | > 50 nM | 100 to 1000 nM | 100 to 1000 nM | – | – | –
CCN(CC)CC(CO)OC(=O)NCc1cccc(NC(=O)Nc2ccc(-c3cnco3)c(OC)c2)c1 (stereo not drawn) [Compound 80] | < 10 nM | 100 to 1000 nM | 100 to 1000 nM | – | – | –
COc1cc(NC(=O)Nc2cccc(CNC(=O)O[C@H](CO)CC#N)c2)ccc1-c1cnco1 [Compound 63] | < 10 nM | 100 to 1000 nM | 100 to 1000 nM | – | – | –
COc1cc(NC(=O)Nc2cccc(CNC(=O)OC3COCC3OCC(=O)OC(C)(C)C)c2)ccc1-c1cnco1 (stereo not drawn) [Compound 72] | < 10 nM | – | – | 100 to 1000 nM | 100 to 1000 nM | –
CNCCC(OC(=O)NCc1cccc(NC(=O)Nc2ccc(-c3cnco3)c(OC)c2)c1)c1ccccc1 (stereo not drawn) [Compound 34] | < 10 nM | > 1000 nM | 100 to 1000 nM | – | – | –
CCCC(CC#N)OC(=O)NCc1cccc(NC(=O)Nc2ccc(-c3cnco3)c(OC)c2)c1 (stereo not drawn) [Compound 32] | < 10 nM | 100 to 1000 nM | < 100 nM | – | – | –
CCC(CC#N)OC(=O)NC(C)c1cccc(NC(=O)Nc2ccc(-c3cnco3)c(OC)c2)c1 (stereo not drawn) [Compound 163] | 10 to 50 nM | < 100 nM | < 100 nM | – | – | –
CCC(COC)OC(=O)NCc1cccc(NC(=O)Nc2ccc(-c3cnco3)c(OC)c2)c1 (stereo not drawn) [Compound 42] | < 10 nM | 100 to 1000 nM | 100 to 1000 nM | – | – | –

SMILES | Ki (IMPDH human type II; read-out: Ki) | IC50 (human PBMC T cells; Homo sapiens, 72 h) | IC50 (human PBMC B cells; Homo sapiens, 72 h) | IC50 (human PBMC T cells) | IC50 (human PBMC B cells) | Ki (IMPDH human type II)
COc1cc(NC(=O)Nc2cccc(CNC(=O)O[C@@H](CC#N)CN(C)C)c2)ccc1-c1cnco1 [Compound 22] | < 10 nM | 100 to 1000 nM | 100 to 1000 nM | – | – | –
COc1cc(NC(=O)Nc2cccc([C@H](C)NC(=O)OCCC#N)c2)ccc1C#N [Compound 170] | < 10 nM | 100 to 1000 nM | 100 to 1000 nM | – | – | –
CCC(CN1CC[S+]([O-])CC1)OC(=O)NCc1cccc(NC(=O)Nc2ccc(-c3cnco3)c(OC)c2)c1 (stereo not drawn) [Compound 84] | 10 to 50 nM | 100 to 1000 nM | 100 to 1000 nM | – | – | –
COc1cc(NC(=O)Nc2cccc(CNC(=O)OC3COCC3OCC#N)c2)ccc1-c1cnco1 (stereo not drawn) [Compound 76] | < 10 nM | – | – | < 100 nM | < 100 nM | –
CCCN(C[C@@H](OC(=O)NCc1cccc(NC(=O)Nc2ccc(-c3cnco3)c(OC)c2)c1)c1ccccc1)C(C)C [Compound 108] | > 50 nM | 100 to 1000 nM | < 100 nM | – | – | –
COc1cc(NC(=O)Nc2cccc(CNC(=O)OC(CCN3CCOCC3)c3ccccc3)c2)ccc1-c1cnco1 (stereo not drawn) [Compound 48] | < 10 nM | 100 to 1000 nM | 100 to 1000 nM | – | – | –
CCCN(CCC(OC(=O)NCc1cccc(NC(=O)Nc2ccc(-c3cnco3)c(OC)c2)c1)c1ccccc1)C(C)C (stereo not drawn) [Compound 107] | > 50 nM | 100 to 1000 nM | 100 to 1000 nM | – | – | –
COc1cc(NC(=O)Nc2cccc(CNC(=O)OC(CC#N)C(C)(C)C)c2)ccc1-c1cnco1 (stereo not drawn) [Compound 46] | < 10 nM | 100 to 1000 nM | 100 to 1000 nM | – | – | –
CCCN(CC)CCC(OC(=O)NCc1cccc(NC(=O)Nc2ccc(-c3cnco3)c(OC)c2)c1)c1ccccc1 (stereo not drawn) [Compound 119] | > 50 nM | 100 to 1000 nM | 100 to 1000 nM | – | – | –
CCCN(CCC)CCC(OC(=O)NCc1cccc(NC(=O)Nc2ccc(-c3cnco3)c(OC)c2)c1)c1ccccc1 (stereo not drawn) [Compound 123] | > 50 nM | > 1000 nM | > 1000 nM | – | – | –
CCN(CCC(OC(=O)NCc1cccc(NC(=O)Nc2ccc(-c3cnco3)c(OC)c2)c1)c1ccccc1)C(C)C (stereo not drawn) [Compound 129] | > 50 nM | 100 to 1000 nM | 100 to 1000 nM | – | – | –
COc1cc(NC(=O)Nc2cccc(CNC(=O)OC[C@H](N)CC#N)c2)ccc1-c1cnco1 [Compound 9] | < 10 nM | 100 to 1000 nM | 100 to 1000 nM | – | – | –
CCC(CCCO)OC(=O)NCc1cccc(NC(=O)Nc2ccc(-c3cnco3)c(OC)c2)c1 (stereo not drawn) [Compound 44] | < 10 nM | 100 to 1000 nM | 100 to 1000 nM | – | – | –
COc1cc(NC(=O)Nc2cccc(CNC(=O)O[C@@H](C)CN(C)Cc3ccco3)c2)ccc1-c1cnco1 [Compound 30] | < 10 nM | > 1000 nM | 100 to 1000 nM | – | – | –
COc1cc(NC(=O)Nc2cccc(CNC(=O)OC(CCN(CC3CC3)C(C)C)c3ccccc3)c2)ccc1-c1cnco1 (stereo not drawn) [Compound 131] | > 50 nM | 100 to 1000 nM | 100 to 1000 nM | – | – | –
COc1cc(NC(=O)Nc2cccc(CNC(=O)OC(CC[N+](C)(C)C)c3ccccc3)c2)ccc1-c1cnco1 (stereo not drawn) [Compound 36] | – | > 1000 nM | > 1000 nM | – | – | < 10 nM
COc1cc(NC(=O)Nc2cccc(CNC(=O)OC3COCC3OCC(=O)O)c2)ccc1-c1cnco1 (stereo not drawn) [Compound 73] | < 10 nM | – | – | > 1000 nM | > 1000 nM | –
COc1cc(NC(=O)Nc2cccc(CNC(=O)OC(CCN(C)C(C)C)c3ccccc3)c2)ccc1-c1cnco1 (stereo not drawn) [Compound 128] | > 50 nM | 100 to 1000 nM | 100 to 1000 nM | – | – | –
CC[C@H](CCC#N)OC(=O)NCc1cccc(NC(=O)Nc2ccc(-c3cnco3)c(OC)c2)c1 [Compound 83] | 10 to 50 nM | 100 to 1000 nM | 100 to 1000 nM | – | – | –
CCC(CO)OC(=O)N[C@H](C)c1cccc(NC(=O)Nc2ccc(C#N)c(OC)c2)c1 (stereo partly drawn) [Compound 175] | > 50 nM | > 1000 nM | > 1000 nM | – | – | –
CCCN(CCC)CC(OC(=O)NCc1cccc(NC(=O)Nc2ccc(-c3cnco3)c(OC)c2)c1)c1ccccc1 (stereo not drawn) [Compound 113] | > 50 nM | > 1000 nM | > 1000 nM | – | – | –
CC[C@@H](CO)OC(=O)NCc1cccc(NC(=O)Nc2ccc(-c3cnco3)c(OC)c2)c1 [Compound 61] | < 10 nM | 100 to 1000 nM | 100 to 1000 nM | – | – | –
COc1cc(NC(=O)Nc2cccc(CNC(=O)OCCN(C)CCC#N)c2)ccc1-c1cnco1 [Compound 3] | < 10 nM | 100 to 1000 nM | 100 to 1000 nM | – | – | –
COc1cc(NC(=O)Nc2cccc(CNC(=O)O[C@H](CN3CCOCC3)c3ccccc3)c2)ccc1-c1cnco1 [Compound 51] | < 10 nM | 100 to 1000 nM | 100 to 1000 nM | – | – | –
COc1cc(NC(=O)Nc2cccc(CNC(=O)OCCCl)c2)ccc1-c1cnco1 [Compound 24] | < 10 nM | > 1000 nM | > 1000 nM | – | – | –
COc1cc(NC(=O)Nc2cccc(CNC(=O)O[C@@H](CC#N)CN3CCOCC3)c2)ccc1-c1cnco1 [Compound 20] | < 10 nM | – | – | 100 to 1000 nM | 100 to 1000 nM | –
